Data on three compounds can be found in PMC5673977, “Transport Deficiency Is the Molecular Basis of Candida albicans Resistance to Antifungal Oligopeptides” (Frontiers in Microbiology, 2017).

Holding throughout (format): cell-based, Candida albicans
Data set [1] relates to C. albicans opt1–opt5Δ ptr2Δ ptr22Δ. The data set is described as follows: Initial peptide uptake rate. Conditions: 50 mM potassium phosphate buffer (pH 5.0 or 6.5) + 1% glucose, 30°C, 100 μM peptide, TNBS A420, slope 0- to 10-min. As to the method:
(§1) Yeast cells grown exponentially in the YNB-SG medium were harvested by centrifugation (3000 ×g, 5 min), washed with 50 mM potassium phosphate buffer (pH 5.0 or 6.5), and suspended in the same buffer containing 1% glucose, to a final cell density corresponding to A660 ≅ 1.0. The cell suspension was incubated at 30°C. After 10 min, an oligopeptide solution was added, to give a final concentration of 100 μM. At that moment and at 5 min intervals thereafter, 2 mL samples of the cell suspension were withdrawn, immediately filtered through the Whatman GF/A filters and the filtrates were used to determine the residual peptide concentration. Then, the 1 mL portions of the filtrates were taken and combined with 1.25 mL aliquots of a solution containing 4% Na2B4O7 × 10 H2O and 0.8 mg mL^-1 of 2,4,6-trinitrobenzenesulfonate. The reaction was carried out at 37°C for 30 min. The A420 values were measured and the peptide concentration was read from the appropriate standard curve. Data were plotted as nanomoles of an oligopeptide, taken up by 1 mg (dry weight) of cells versus time. The initial uptake velocities were determined from the slopes of the linear part of the curves, in the 0- to 10-min region.

For data set [2], the system named is C. albicans opt5Δ. Nature of the data set: Initial peptide uptake rate. The settings on record: 50 mM potassium phosphate buffer (pH 5.0 or 6.5) + 1% glucose, 30°C, 100 μM peptide, TNBS A420, slope 0- to 10-min. As to the method: as §1
Data set [3] deals with C. albicans opt2Δ opt3Δ. The data set is described as follows: Initial peptide uptake rate. Conditions: 50 mM potassium phosphate buffer (pH 5.0 or 6.5) + 1% glucose, 30°C, 100 μM peptide, TNBS A420, slope 0- to 10-min. As to the method:
as §1

In data set [4] the test system is C. albicans opt4Δ. The data set is described as follows: Initial peptide uptake rate. The settings on record: 50 mM potassium phosphate buffer (pH 5.0 or 6.5) + 1% glucose, 30°C, 100 μM peptide, TNBS A420, slope 0- to 10-min. As to the method: as §1
Data set [5] relates to C. albicans opt1Δ. The data set is described as follows: Initial peptide uptake rate. The settings on record: 50 mM potassium phosphate buffer (pH 5.0 or 6.5) + 1% glucose, 30°C, 100 μM peptide, TNBS A420, slope 0- to 10-min. As to the method: as §1
Data set [6] has as its system C. albicans SC5314. The data set is described as follows: Initial peptide uptake rate. Conditions: SC 5314; cells grown in YNB-SG; 50 mM potassium phosphate buffer (pH 5.0 or 6.5) + 1% glucose, 30°C, 100 μM peptide, residual peptide by TNBS A420, slope 0- to 10-min. As to the method: as §1
In data set [7] the test system is C. albicans ptr2Δ ptr22Δ. Nature of the data set: Initial peptide uptake rate. Conditions: 50 mM potassium phosphate buffer (pH 5.0 or 6.5) + 1% glucose, 30°C, 100 μM peptide, TNBS A420, slope 0- to 10-min. As to the method:
as §1

Data set [8] has as its system C. albicans opt1–opt5Δ. The data set is described as follows: Initial peptide uptake rate. Conditions: 50 mM potassium phosphate buffer (pH 5.0 or 6.5) + 1% glucose, 30°C, 100 μM peptide, TNBS A420, slope 0- to 10-min. As to the method:
as §1

Data set [9] has as its system C. albicans opt1–opt5Δ ptr2Δ ptr22Δ. The settings on record: turbidity 531 nm, at least 80% decrease. As to the method: (§2) Strains were grown at 30°C in YPD medium (1% yeast extract, 2% peptone, and 2% glucose) and stored on YPD plates containing 2% agar. Susceptibility testing was performed in YPD and other three media: (a) RPMI-1640 w/o sodium bicarbonate, with L-glutamine + 2% glucose + 3.45% MOPS, pH adjusted to 7.0; (b) YNB-AS—Yeast Nitrogen Base w/o amino acids (contains ammonium sulfate 5 g L^-1) + 2% glucose; (c) YNB-SG—Yeast Nitrogen Base w/o amino acids and ammonium sulfate + 2% glucose + 0.2 g L^-1 sodium glutamate. In their solid version, used for the mutant generation and isolation, YNB-AS and YNB-SG contained 2% agar.
(§3) The in vitro growth inhibitory activity of antifungals was quantified by determination of minimal inhibitory concentration (MIC) values by the serial twofold dilution method, using the 96-well microtiter plates in three media: buffered RPMI-1640, YNB-AS, and YNB-SG. Conditions of the RPMI-1640-based assay were the same as outlined in the CLSI recommendations ([Clinical Laboratory Standards Institute, 2008]), except for the end-point readout that was done by spectrophotometric determination of cell density at 531 nm. Turbidity in individual wells was measured with a microplate reader (Victor^3; Perkin Elmer). MIC was defined as the lowest drug concentration that gave at least an 80% decrease in turbidity, relative to that of the drug-free growth control.
(§4) The 96-well microtiter plates were also used for determination of in vitro growth inhibitory activity in YPD and YNB-based media. Individual wells were inoculated with 5 × 10^3 cfu mL^-1 of C. albicans cells from the overnight culture in YPD medium. The inoculated plates were incubated 37°C for 24 h and then turbidity was measured with a microplate reader at 531 nm, as described above for the RPMI-1640-based assay.

Data set [10] concerns C. albicans opt5Δ. The settings on record: turbidity 531 nm, at least 80% decrease. As to the method:
as §2, §3, §4

For data set [11], the system named is C. albicans opt2Δ opt3Δ. Conditions: turbidity 531 nm, at least 80% decrease. As to the method: as §2, §3, §4
For data set [12], the system named is C. albicans opt4Δ. The settings on record: turbidity 531 nm, at least 80% decrease. As to the method:
as §2, §3, §4

Data set [13] relates to C. albicans opt1Δ. Conditions: turbidity 531 nm, at least 80% decrease. As to the method: as §2, §3, §4
In data set [14] the test system is C. albicans SC5314. The settings on record: SC 5314. As to the method:
as §2, §3, §4

In data set [15] the test system is C. albicans ptr2Δ ptr22Δ. Conditions: turbidity 531 nm, at least 80% decrease. As to the method:
as §2, §3, §4

Data set [16] has as its system C. albicans opt1–opt5Δ. Conditions: turbidity 531 nm, at least 80% decrease. As to the method:
as §2, §3, §4

The test system of data set [17] is C. albicans isolates NF1-3 and LNF1-3. Nature of the data set: Initial peptide uptake rate by isolates resistant to F2/F3. The settings on record: all six isolates NF1-3, LNF1-3; Figure 4. As to the method:
as §1
It is therefore clear that the diminished sensitivity of all six isolates to F2 and F3 was due to the reduced uptake, most likely by permease(s) of the PTR system.

The mark [18] stands for this setting: RPMI-1640 medium, MOPS pH 7.0, CLSI conditions.

≈ marks a conversion by molar mass, not a printed value. Read-outs that look alike come from different tables or passages of the source. Where a SMILES comes first, the peptide text is derived from it.

On to `CC(C)[C@H](NC(=O)[C@H](Cc1c[nH]c2ccccc12)NC(=O)[C@H](Cc1ccccc1)NC(=O)[C@@H](NC(=O)[C@@H](NC(=O)[C@H](CCCCN)NC(=O)[C@@H](N)CCCCN)C(C)C)C(C)C)C(=O)N[C@@H](CCCCN)C(=O)N[C@@H](Cc1ccccc1)C(=O)N[C@@H](CCCCN)C(=O)O` [Peptide P10, Lys-Lys-Val-Val-Phe-Trp-Val-Lys-Phe-Lys] (H-KKVVFWVKFK-OH), for which the “Uptake rate ± SD” value (in data set [1]; with C. albicans opt5Δ [2]; with C. albicans opt2Δ opt3Δ [3]; in the data set with C. albicans opt4Δ [4]; in the data set with C. albicans opt1Δ [5]; in the data set with C. albicans SC5314 [6]) was <0.1 nmol min^-1 (mg dry weight)^-1 in each case. Besides, the “Uptake rate ± SD” value in the data set with C. albicans ptr2Δ ptr22Δ [7] and with C. albicans opt1–opt5Δ [8] was <0.1 nmol min^-1 (mg dry weight)^-1 throughout. Further, the MIC (commonly the least concentration at which growth counts as inhibited) in data set [9] (setting [18]) is 64 µg/mL (≈ 48.9 µM); in data set [9] (YNB-AS medium, 37°C, 24 h), 64 µg/mL (≈ 48.9 µM); in data set [9] (YNB-SG medium, 37°C, 24 h) it was 64 µg/mL (≈ 48.9 µM); against C. albicans opt5Δ [10] (setting [18]), 64 µg/mL (≈ 48.9 µM); against C. albicans opt5Δ [10] (YNB-AS medium, 37°C, 24 h), 64 µg/mL (≈ 48.9 µM); in the data set on C. albicans opt5Δ [10] (YNB-SG medium, 37°C, 24 h), 64 µg/mL (≈ 48.9 µM). The MIC with C. albicans opt2Δ opt3Δ [11] (setting [18]) came to 64 µg/mL (≈ 48.9 µM); in the data set with C. albicans opt2Δ opt3Δ [11] (YNB-AS medium, 37°C, 24 h) it was 64 µg/mL (≈ 48.9 µM); against C. albicans opt2Δ opt3Δ [11] (YNB-SG medium, 37°C, 24 h) it was 64 µg/mL (≈ 48.9 µM); with C. albicans opt4Δ [12] (setting [18]), 64 µg/mL (≈ 48.9 µM); with C. albicans opt4Δ [12] (YNB-AS medium, 37°C, 24 h), 64 µg/mL (≈ 48.9 µM); against C. albicans opt4Δ [12] (YNB-SG medium, 37°C, 24 h) it was 64 µg/mL (≈ 48.9 µM). Besides, the MIC was found to be 64 µg/mL (≈ 48.9 µM) against C. albicans opt1Δ [13] (setting [18]); 64 µg/mL (≈ 48.9 µM) against C. albicans opt1Δ [13] (YNB-AS medium, 37°C, 24 h); 64 µg/mL (≈ 48.9 µM) in the data set with C. albicans opt1Δ [13] (YNB-SG medium, 37°C, 24 h); 64 µg/mL (≈ 48.9 µM) in the data set with C. albicans SC5314 [14] (RPMI-1640 medium, MOPS pH 7.0, CLSI conditions, turbidity 531 nm, at least 80% decrease); 64 µg/mL in the data set with C. albicans SC5314 [14] (YNB + L-Gln (0.3 g L^-1) pH 5.0); 64 µg/mL in the data set on C. albicans SC5314 [14] (YNB + L-Gln (0.3 g L^-1) pH 7.0). Also, the MIC worked out at 64 µg/mL in the data set with C. albicans SC5314 [14] (YNB + amino acid mixture (composition as in RPMI-1640)); 64 µg/mL (≈ 48.9 µM) against C. albicans SC5314 [14] (YNB-AS medium, 5 × 10^3 cfu mL^-1, 37°C, 24 h, turbidity 531 nm, at least 80% decrease); 64 µg/mL (≈ 48.9 µM) with C. albicans SC5314 [14] (YNB-SG medium, 5 × 10^3 cfu mL^-1, 37°C, 24 h, turbidity 531 nm, at least 80% decrease); 64 µg/mL (≈ 48.9 µM) with C. albicans SC5314 [14] (growth medium YNB-SG (Table 6)); 64 µg/mL (≈ 48.9 µM) against C. albicans ptr2Δ ptr22Δ [15] (setting [18]); 64 µg/mL (≈ 48.9 µM) with C. albicans ptr2Δ ptr22Δ [15] (YNB-AS medium, 37°C, 24 h). For the same compound, the MIC against C. albicans ptr2Δ ptr22Δ [15] (YNB-SG medium, 37°C, 24 h) worked out at 64 µg/mL (≈ 48.9 µM); against C. albicans opt1–opt5Δ [16] (setting [18]), 64 µg/mL (≈ 48.9 µM); in the data set with C. albicans opt1–opt5Δ [16] (YNB-AS medium, 37°C, 24 h), 64 µg/mL (≈ 48.9 µM); in the data set on C. albicans opt1–opt5Δ [16] (YNB-SG medium, 37°C, 24 h), 64 µg/mL (≈ 48.9 µM).

As for Ala-Ala [(Ala)2, reference compound], the “Uptake rate ± SD” value in [1] is recorded as <0.1 nmol min^-1 (mg dry weight)^-1; with C. albicans opt5Δ [2], 5.00 ± 0.38 nmol min^-1 (mg dry weight)^-1; in the data set on C. albicans opt2Δ opt3Δ [3] it was 3.96 ± 0.29 nmol min^-1 (mg dry weight)^-1; in the data set on C. albicans opt4Δ [4], 4.83 ± 0.31 nmol min^-1 (mg dry weight)^-1; with C. albicans opt1Δ [5] it was 4.50 ± 0.36 nmol min^-1 (mg dry weight)^-1; with C. albicans SC5314 [6] it was 5.12 ± 0.32 nmol min^-1 (mg dry weight)^-1. The results for the “Uptake rate ± SD” value in the data set on C. albicans ptr2Δ ptr22Δ [7] and with C. albicans opt1–opt5Δ [8] were <0.1 nmol min^-1 (mg dry weight)^-1 and 5.88 ± 0.40 nmol min^-1 (mg dry weight)^-1, respectively. For the same compound, in data set [17], the “Initial uptake rate relative to wild type SC5314 cells” value is recorded as “remarkably lower”.

As to “Ala-Ala-Ala [(Ala)3, reference compound]”, the “Uptake rate ± SD” value in data set [1] is <0.1 nmol min^-1 (mg dry weight)^-1; with C. albicans opt5Δ [2] it was 3.61 ± 0.30 nmol min^-1 (mg dry weight)^-1; with C. albicans opt2Δ opt3Δ [3], 4.16 ± 0.22 nmol min^-1 (mg dry weight)^-1; in the data set with C. albicans opt4Δ [4], 3.22 ± 0.27 nmol min^-1 (mg dry weight)^-1; in the data set with C. albicans opt1Δ [5], 4.89 ± 0.28 nmol min^-1 (mg dry weight)^-1; in the data set on C. albicans SC5314 [6], 5.62 ± 0.33 nmol min^-1 (mg dry weight)^-1. The “Uptake rate ± SD” value in the data set with C. albicans ptr2Δ ptr22Δ [7] is listed as <0.1 nmol min^-1 (mg dry weight)^-1; in the data set with C. albicans opt1–opt5Δ [8] it was 4.99 ± 0.36 nmol min^-1 (mg dry weight)^-1. For the same compound, the “Initial uptake rate relative to wild type SC5314 cells” value in [17] is on record as “lower”.
